Earlier results as cited in patent US20240174947A1, “SURFACTANT COMPOSITIONS” (LANKEM LTD., priority 2021, published 2024).

System: reconstructed human epidermis (RhE)
Settings: for ET50: typical reference ET50 irritancy results for commonly used anionic and amphoteric surfactants; for Classification (expected in vivo irritancy): typical reference results for commonly used anionic and amphoteric surfactants, assigned from ET50

Row | Compound | ET50 [h] | Classification (expected in vivo irritancy)
1 | CCCCCCCCCCCCOS(=O)(=O)[O-].[Na+] [Sodium lauryl sulfate] | 9.37 | Moderate to mild (4-12)
2 | Cocamidopropyl betaine | 29.4 | Non-irritating (>24)
3 | Sodium laureth sulfate | 10.25 | Moderate to mild (4-12)
